Patent US9345245B2, “Synthetic compounds for vegetative ABA responses” (THE REGENTS OF THE UNIVERSITY OF CALIFORNIA, priority 2012, dated 2016)

What was measured:
PYL5 = molecular target: T1, PYL5 (Arabidopsis thaliana, UniProt Q9FLB1); experiment: Receptor-mediated PP2C inhibition assay, receptor PYL5; type: biochemical
T1 construct: 6xHis (N); made in house; BL21[DE3]pLysS for the GST-PP2Cs
T1 sequence (Q9FLB1 1-203): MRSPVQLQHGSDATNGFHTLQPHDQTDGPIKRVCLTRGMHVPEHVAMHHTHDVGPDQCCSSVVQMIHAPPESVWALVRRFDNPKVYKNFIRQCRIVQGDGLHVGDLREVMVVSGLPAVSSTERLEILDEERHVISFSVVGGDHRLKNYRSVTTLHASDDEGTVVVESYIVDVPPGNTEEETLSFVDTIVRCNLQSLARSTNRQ
T1 sequence (Q9CAJ0 23-511 partner): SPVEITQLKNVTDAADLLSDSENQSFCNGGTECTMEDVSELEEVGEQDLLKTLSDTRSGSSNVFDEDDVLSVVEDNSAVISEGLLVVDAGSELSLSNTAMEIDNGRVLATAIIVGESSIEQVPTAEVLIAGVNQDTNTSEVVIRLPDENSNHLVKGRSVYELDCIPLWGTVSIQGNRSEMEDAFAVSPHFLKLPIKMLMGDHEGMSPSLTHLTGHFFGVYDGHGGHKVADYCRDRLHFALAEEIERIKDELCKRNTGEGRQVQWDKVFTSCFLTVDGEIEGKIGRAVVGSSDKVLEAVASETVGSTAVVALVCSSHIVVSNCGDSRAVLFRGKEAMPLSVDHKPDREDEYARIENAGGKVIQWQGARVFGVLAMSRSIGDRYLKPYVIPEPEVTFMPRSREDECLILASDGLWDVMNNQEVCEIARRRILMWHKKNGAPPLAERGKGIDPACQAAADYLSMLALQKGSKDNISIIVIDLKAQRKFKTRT
Description: HAB1 and PYL proteins were expressed and purified as described previously (Park S Y, et al. (2009) Abscisic Acid Inhibits Type 2C Protein Phosphatases via the PYR/PYL Family of START Proteins. Science 324(5930):1068-1071), with minor modifications. To obtain GST-HAB1, -ABI1 and -ABI2 fusion proteins, the HAB1 cDNA was cloned into pGex-2T whereas ABI1 and ABI2 cDNAs were cloned into the vector pGex-4T-1. Expression was conducted in BL21[DE3]pLysS host cells. Transformed cells were pre-cultured overnight, transferred to LB medium and cultured at 30° C. to culture A600 of ˜0.5. The culture was then cooled on ice and MnCl2 added to 4 mM and IPTG added to 0.3 mM. After 16 hours incubation at 15° C., cells were harvested and recombinant proteins were purified on glutathione agarose as described previously (Park S Y, et al. (2009). To obtain 6×His-PYL receptor fusion proteins, receptor cDNAs for all 13 ABA receptors were cloned into the vector pET28 and expressed and purified as described previously (Mosquna A, et al. (2011) Potent and selective activation of abscisic acid receptors in vivo by mutational stabilization of their agonist-bound conformation. PNAS 108(51):20838-20843); this yielded soluble and functional protein (assessed using receptor-mediated PP2C inhibition assays) for all receptors except PYL7, PYL11 and PYL12. […]

ABA-responsive genes = experiment: Quantitative RT-PCR of ABA-responsive genes in Arabidopsis; type: in vivo
Description: FIG. 9. LC66C6 induces numerous ABA-responsive genes. […] Ten-day old seedlings were treated with carrier solvent (DMSO) or either 25 μM ABA, pyrabactin or LC66C6 for 8 hours. Total RNA was then prepared labeled and hybridized to ATH1 microarrays. Data plotted are log 2 transformed average expression values for ˜13K probes that were detectable across all experiments. Data shown are averages determined from triplicate biological replicates. (C) and (D) show the expression of a reporter gene in different plant tissues after treatment with vehicle (DMSO), pyrabactin, LC66C6, or (+)-ABA.
Total RNA was isolated using Plant RNA purification reagent (Invitrogen, USA) according to the manufacturer's instructions. cDNA was synthesized from 1 μg of total RNA using the QantiTec reverse transcription kit (Qiagen, USA). Real-time PCR using Maxima® SYBR Green/Fluorescein qPCR Master Mix (Fermentas) was performed with the iQ5 real-time PCR detection system (Bio-Rad, Hercules, Calif.). The relative amounts of target mRNAs were determined using the relative standard curve method and were normalized by relative amount of internal control mRNA. Biological triplicate experiments were performed.

Chlamydomonas = experiment: Colony growth of Chlamydomonas with and without salinity and osmotic stress; type: in vivo; settings: in vivo
Description: FIG. 17. The effect of ABA and its agonists in Physcomitrella patens and Chlamydomonas. Protonemal growth images (A) and quantitative analysis (B) of the effects of ABA and agonists on Phsycomitrella patens. Protonema were grown on 200 μM of specific test chemical for 10 days. […] Pyrabactin bleached protonema. (C) The expression of ABA-responsive genes of Physcomitrella patens. Protonema were treated with 200 μM chemical solutions for 3 h. (D) Colony growth of Chlamydomonas on the chemical with salinity stress and osmotic stress. There was no effect of ABA and LC66C6 on the Chlamydomonas growth with and without stresses.

Arabidopsis seeds = settings: pyr1 single mutant; Park et al. 2009; cited from earlier work

Structure (SMILES): O=S(=O)(NCc1ccccn1)c1ccc(Br)c2ccccc12 [pyrabactin]
- PP2C inhibition at saturation (PYL5; maximal (saturating) inhibition): ~40%
- IC50 (PYL5; read-out: IC50 (activation of PYL5)): 900 nM
- induction of MAPKKK18, RD29A, and RD29B mRNAs (ABA-responsive genes; Col and Ler ecotypes and pyr1, pyl1, ply2, pyl3 and pyl4 single mutants): did not significantly induce expression of any of the genes assayed
- expression of ABF3, GBF3, NCED3, and RD29A (ABA-responsive genes; Col wild-type plants): did not induce significant expression of any genes analyzed
- expression of RD29B and MAPKKK18 mRNA (ABA-responsive genes; wild-type plants): did not induce gene expression
- bleaching of Chlamydomonas (toxicity) (Chlamydomonas): bleached the Chlamydomonas
- germination of pyr1 mutant (Arabidopsis seeds): pyr1 mutant germinates
